This is an account of results in patent US8859550B2, “Heterocyclic inhibitors of histamine receptors for the treatment of disease” (Kalypsys, Inc., priority 2011, dated 2014).

Where two headings read alike, the source gives them in different places.

Series [1] addresses T1, human H4 (Homo sapiens, UniProt Q9H3N8).
T1 construct: host or cells: CHO-K1
Briefly: In vitro histamine receptor cell-based assay (aequorin bioluminescence), antagonist mode. The following applies: CHO-K1 cells expressing human H4, aequorin and Gα16; histamine at EC80. As for the experimental part: (§1) The cell-based assays utilize an aequorin dependent bioluminescence signal. Doubly-transfected, stable CHO-K1 cell lines expressing human H4, or H1, mitochondrion-targeted aequorin, and (H4 only) human G protein Gα16 are obtained from Perkin-Elmer. Cells are maintained in F12 (Ham's) growth medium, containing 10% (vol./vol.) fetal bovine serum, penicillin (100 IU/mL), streptomycin (0.1 mg/mL), zeocin (0.25 mg/mL) and geneticin (0.40 mg/mL). Cell media components are from Invitrogen, Inc. One day prior to assay, the growth medium is replaced with the same, excluding zeocin and geneticin. In some assays, cells previously frozen at “ready to use density” are thawed and immediately available for loading with coelenterazine-h dye as described below. […]
(§2) Just before assay, the dye-loaded cells are diluted to 1.5×10^6 cells/mL (H4 receptor) or 0.75×10^6 cells/mL (H1 receptor) with additional assay medium. […] Assay plates are then transferred to a Lumilux bioluminescence plate reader (Perkin-Elmer) equipped with an automated 1536 disposable tip pipette. The pipette dispenses 3 μL/well of agonist (histamine, at twice the final concentration, where final concentration is a previously determined EC80) in assay medium, with concurrent bioluminescence detection. […] Efficacy is measured as a percentage of positive control activity.

The nature of series [2]: In-situ salt formation screen (filtrate solubility). It counts as physicochemical. The following applies: thermodynamic from solid, read-out: Filtrate Solubility.
Series [3] concerns the target T1, human H4. Description: In vitro histamine receptor cell-based assay (aequorin bioluminescence), agonist mode. The following applies: CHO-K1 cells expressing human H4; test compound alone, without added histamine. As for the experimental part: as §1, §2
The subject of the next series is BALB/c mice. Briefly: Model of allergic rhinitis in Balb/C mice, whole-body plethysmography. Type of series: in vivo. The arrangement: key: +: increase in RF over positive control; −: no increase in RF over positive control. The following applies: 0.1%, w/v, intranasal instillation 10 μl in each nostril 2.5 hours prior to OVA; day 4 (early phase). The source says: Female BALB/c mice, 6-12 weeks of age, were obtained from Jackson Laboratories (Bar Harbor, Me.). All experimental animals used in this work were under a protocol approved by the Institutional Animal Care and Use Committee of the National Jewish Medical and Research Center, Denver, Colo.
The assay protocol is similar to that described in Miyahara, S. et al. (2005), J Allergy Clin Immunol., 116:1020-1027. The role of the H4 receptor in this model has been validated [Shiraishi, Y. et al. (2009), J Allergy Clin Immunol., 123:556]. Briefly, mice received intraperitoneal injections of 20 μg ovalbumin (OVA, Grade V; Sigma-Aldrich, St. Louis, Mo.), previously emulsified in 2.25 mg of alum (AlumImuject; Pierce, Rockford, Ill.) in a total volume of 100 μL (sensitization phase). Injections occurred on days 0 and 14. […] On day 4 (early phase) and day 7 (late phase) after starting OVA challenges, respiratory frequency (RF) was measured in conscious animals by single chamber restrained whole-body plethysmography (WBP) [Buxco Research Systems, Troy, N.Y.]. […] After whole-body plethysmography on day 7, nasal airflow impedance was measured as described (RNA, see Methods section for Miyahara S. et al. [above] in the online supplemental material at the Journal of Allergy and Clinical Immunology: www.jacionline.org), using a custom-designed ventilator (Flexivent; Scireq, Montreal, Quebec, Canada). […]

T1 sequence (Q9H3N8 whole entry): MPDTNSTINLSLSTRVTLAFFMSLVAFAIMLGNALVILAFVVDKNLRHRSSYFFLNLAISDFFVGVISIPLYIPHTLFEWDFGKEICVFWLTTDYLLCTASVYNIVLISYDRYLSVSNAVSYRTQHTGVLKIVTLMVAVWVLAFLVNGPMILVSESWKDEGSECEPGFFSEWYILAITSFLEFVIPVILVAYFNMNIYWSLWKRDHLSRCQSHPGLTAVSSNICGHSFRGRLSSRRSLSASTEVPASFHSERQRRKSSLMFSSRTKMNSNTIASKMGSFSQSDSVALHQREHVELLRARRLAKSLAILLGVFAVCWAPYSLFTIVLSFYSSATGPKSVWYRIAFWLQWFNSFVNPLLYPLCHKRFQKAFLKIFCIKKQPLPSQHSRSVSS

Turning to `CN1CCN(c2ncc(-c3cccs3)n3nnnc23)CC1` [Compound 1, 8-(4-Methylpiperazin-1-yl)-5-(thiophen-2-yl)tetrazolo[1,5-a]pyrazine], the 50% effective concentration (EC50) (commonly the concentration that produces a half-maximal response) on human H4 [1] was not above 10 µM; at human H4 [3], more than 100 µM. In addition, the solubility (in general, the concentration that dissolves in the medium under given conditions) at 48 h in series [2] (aqueous buffer, 0.1M aqueous Acetic Acid, filtrate pH 4.02, filtrant Free Base) was found to be 7990 µg/mL; in series [2] (aqueous buffer, 0.1M aqueous Citric Acid, filtrate pH 3.11, filtrant Salt), 1750 µg/mL; in series [2] (aqueous buffer, 0.1M aqueous L-Glutamic Acid, filtrate pH 4.28, filtrant Free Base), 6750 µg/mL; in series [2] (aqueous buffer, 0.1M aqueous L-Malic Acid, filtrate pH 4.15, filtrant Salt), 13400 µg/mL; in series [2] (aqueous buffer, 0.1M aqueous L-Tartaric Acid, filtrate pH 3.48, filtrant Salt) it was 8690 µg/mL; in series [2] (aqueous buffer, 0.1M aqueous Mesic Acid, filtrate pH 1.49, No Solids Isolated) it was 20000 µg/mL. In addition, the solubility at 48 h in series [2] (aqueous buffer, 0.1M aqueous Phosphoric Acid, filtrate pH 1.76, filtrant Salt) is 870 µg/mL; in series [2] (aqueous buffer, 0.1M aqueous Succinic Acid, filtrate pH 4.13, filtrant Free Base), 10400 µg/mL; in series [2] (aqueous buffer, 0.1M aqueous Sulfuric Acid, filtrate pH 1.39, filtrant Salt) it was 560 µg/mL; in series [2] (pH 4.2, aqueous buffer, 0.1M aqueous L-Aspartic Acid, filtrate pH 4.20, filtrant Free Base) it was 8640 µg/mL; in series [2] (simulated gastric fluid, 0.1M aqueous Hydrochloric Acid, filtrate pH 1.25, filtrant Salt) it was 990 µg/mL. In addition, in the series with BALB/c mice, the “WBP, Day 4 (respiratory frequency, RF)” value was “+”.
Turning to `CNC1CN(c2ncc(-c3cccs3)n3nnnc23)C1` [Compound 2, N-methyl-1-(5-(thiophen-2-yl)tetrazolo[1,5-a]pyrazin-8-yl)azetidin-3-amine], the EC50 on human H4 [1] is not above 10 µM; on human H4 [3] it was more than 100 µM. Also, the solubility at 48 h in series [2] (aqueous buffer, 0.1M aqueous Acetic Acid, filtrate pH 5.41, No Solids Isolated) is more than 24500 µg/mL; in series [2] (aqueous buffer, 0.1M aqueous Citric Acid, filtrate pH 3.69, filtrant Salt), 4270 µg/mL; in series [2] (aqueous buffer, 0.1M aqueous L-Aspartic Acid, filtrate pH 4.95, No Solids Isolated), more than 18400 µg/mL; in series [2] (aqueous buffer, 0.1M aqueous L-Glutamic Acid, filtrate pH 5.46, filtrant Free Base), 10400 µg/mL; in series [2] (aqueous buffer, 0.1M aqueous L-Malic Acid, filtrate pH 5.13, No Solids Isolated), more than 21100 µg/mL; in series [2] (aqueous buffer, 0.1M aqueous L-Tartaric Acid, filtrate pH 3.23, filtrant Salt) it was 1390 µg/mL. In addition, the solubility at 48 h in series [2] (aqueous buffer, 0.1M aqueous Mesic Acid, filtrate pH 2.28, No Solids Isolated) was more than 25300 µg/mL; in series [2] (aqueous buffer, 0.1M aqueous Phosphoric Acid, filtrate pH 4.8, filtrant Salt) it was 740 µg/mL; in series [2] (aqueous buffer, 0.1M aqueous Succinic Acid, filtrate pH 4.75, filtrant Salt), 100 µg/mL; in series [2] (aqueous buffer, 0.1M aqueous Sulfuric Acid, filtrate pH 1.42, filtrant Salt) it was 610 µg/mL; in series [2] (simulated gastric fluid, 0.1M aqueous Hydrochloric Acid, filtrate pH 2.32, filtrant Salt) it was 15200 µg/mL. The “WBP, Day 4 (respiratory frequency, RF)” value in the series on BALB/c mice is listed as “+”.
